Laboratory results: patent US20240158430A1, “NOVEL COMPOUND OR SALT THEREOF, AND ANTITUMOR ACTIVATOR CONTAINING SAME AS ACTIVE INGREDIENT” (AKITA UNIVERSITY, priority 2021, published 2024)

Columns and labels:
fatty acid synthetase = assay: Influence on fatty acid synthetase, ELISA; assay type: cell-based, Human; conditions: 4 μM vs control group
Description: The influence of GO-Y199 on NF-kB (p65) was investigated. The method is as follows. 3×10^6 cells of the HCT116 cell line were added to a 10-cm plate, 2 μM of GO-Y199 was added after 24 hours, the cells were collected after 24 hours, embedded in iPGell (GenOStaff), and fixed in formalin, paraffin blocks were then prepared, and immuno-histochemistry was performed with an anti-NF-kB (p65) antibody. In addition, 2 μM and 5 μM of GO-Y199 were added, lysates were collected after 24 hours, and an expression level of NF-kB (p65) was analyzed using an ELISA-plate (NF-kBp65 (pS536) SimpleStep-ELISA-kit, Abcam). An amount of protein was corrected by the absorbance of A 280 nm. The upper part of FIG. 14 indicates photographs of the control group and the GO-Y199 (2 μM)-added group after 24 hours. The lower part of FIG. 14 indicates results of the t-test of these groups after 24 hours. FIG. 15 indicates the comparison results of the NF-kB inhibitory effect of GO-Y199 (2 μM, 5 μM)-added groups with respect to the control group.
The influence of GO-Y199 on fatty acid synthetase was investigated. The method is as described above. Protein quantification was performed using a Human Fatty acid synthase ELISA Kit (MyBioSource). FIG. 19 indicates the comparison result of the fatty acid synthetase inhibitory effect of the GO-Y199 (4 μM)-added group with respect to the control group.

[1] = Blood concentration after intravenous injection; assay type: in vivo, BALB/cSlc-nu/+ mice; conditions: mouse, 1 mg tail vein
Description: The blood concentration of GO-Y199 after intravenous injection was investigated. The method is as follows. To BALB/cSlc-nu/+ mice, the equivalent of 1 mg of GO-Y199 was injected into the tail vein as described above, blood was collected from the orbital vein over time, and the serum was subjected to HPLC to measure the blood concentration of GO-Y199. FIG. 27 indicates results of HPLC analysis of blood after intravenous injection. FIG. 28 indicates results of changes over time in the blood concentration of GO-Y199 after intravenous injection.

COCOc1cc(/C=C/C(=O)CC(SCCOCCOCCOCCOCc2cn([C@@H]3O[C@H](CO)[C@@H](O[C@@H]4O[C@H](CO)[C@H](O)[C@H](O)[C@H]4O)[C@H](O)[C@H]3O)nn2)c2cc(OCOC)cc(OCOC)c2)cc(OCOC)c1 (stereo partly shown) [GO-Y199]
fatty acid synthetase inhibitory effect (fatty acid synthetase): significant fatty acid synthetase inhibitory effect
time for which the blood concentration is maintained [1]: 3 h
time after which GO-Y199 disappeared from the blood ([1]; serum HPLC): 180 min
time until which the blood concentration rapidly decreased ([1]; serum HPLC): 60 min
